Data: ChEMBL document CHEMBL4152347 (J Med Chem, 2018)
Values after ≈ are worked out from the molar mass of the structure shown.

How the values were obtained:
[1] = Volume of distribution at steady state in cynomolgus monkey at 1 mg/kg, iv; format: ADME, organism-based, Macaca fascicularis; details: in vivo, read-out: Vdss
[2] = Protein binding in cynomolgus monkey serum at 53 nM after 1 hr by ultracentrifugation assay; format: ADME, cell-free, Macaca fascicularis; details: read-out: PB (converted)
[3] = Volume of distribution at steady state in CD1 mouse at 1 mg/kg, iv; format: ADME, organism-based; details: in vivo, read-out: Vdss
[4] = Oral bioavailability in MDR1 a/b knockout mouse at 5 mg/kg administered via gavage; format: ADME, organism-based; details: in vivo
[5] = AUC (0 to infinity) in cynomolgus monkey at 5 mg/kg, po administered via gavage; format: ADME, organism-based, Macaca fascicularis; design: dose 5 mg/kg, route oral, time infinity; details: in vivo
Canis familiaris [6] = experiment: AUC (0 to infinity) in beagle dog at 5 mg/kg, po administered via gavage as microsuspension along with high fat meal; format: ADME, organism-based, Canis lupus familiaris; design: dose 5 mg/kg, time infinity, route oral; details: in vivo
[7] = AUC (0 to infinity) in Sprague-Dawley rat at 5 mg/kg, po; format: ADME, organism-based; design: dose 5 mg/kg, time infinity, route oral; details: in vivo
[8] = Oral bioavailability in cynomolgus monkey at 5 mg/kg administered via gavage; format: ADME, organism-based, Macaca fascicularis; details: in vivo
Salmonella typhimurium [9] = experiment: Mutagenicity in Salmonella typhimurium TA98 in absence of Aroclor 1254-induced rat liver S9 fraction at up to 1600 ug/plate; format: toxicity, organism-based; details: salmonella enterica subsp. enterica serovar typhimurium
[10] = Cmax in beagle dog at 5 mg/kg, po administered via gavage as microsuspension along with high fat meal; format: ADME, organism-based, Canis lupus familiaris; design: dose 5 mg/kg, route oral; details: in vivo
[11] = AUC (0 to infinity) in beagle dog at 5 mg/kg, po administered via gavage as microsuspension pre-treated with 6 ug/kg, im pentagastrin 15 to 30 mins before compound dosing; format: ADME, organism-based, Canis lupus familiaris; details: in vivo
[12] = target: Human immunodeficiency virus type 1 Gag protein (Human immunodeficiency virus 1, UniProt Q77YG1)
Description: Binding affinity to wild type HIV1 gag polyprotein containing viral like particle

in vitro [13] = details: human, MT2 cells
Description: Cytotoxicity against human MT2 cells assessed as reduction in cell viability

[14] = Protein binding in rat serum at 53 nM after 1 hr by ultracentrifugation assay; format: ADME, cell-free; details: read-out: PB (converted)
[15] = AUC (0 to infinity) in CD1 mouse at 5 mg/kg, po administered via gavage; format: ADME, organism-based; design: dose 5 mg/kg, time infinity, route oral; details: in vivo
[16] = AUC (0 to infinity) in CD1 mouse at 1 mg/kg, iv; format: ADME, organism-based; design: dose 1 mg/kg, route intravenous, time infinity; details: in vivo
Gag-Pol polyprotein [17] = target: Gag-Pol polyprotein (Human immunodeficiency virus type 1 group M subtype B (isolate HXB2)(HIV-1), UniProt P04585)
Description: Binding affinity to HIV1 gag polyprotein delta V370 mutant containing viral like particle

[18] = Protein binding in dog serum at 53 nM after 1 hr by ultracentrifugation assay; format: ADME, cell-free, Canis lupus familiaris; details: read-out: PB (converted)
[19] = Solubility of compound in fed state simulated intestinal fluid at pH 5; format: physicochemical
[20] = Protein binding in human serum at 53 nM after 1 hr by ultracentrifugation assay; format: ADME, cell-free; details: read-out: PB (converted)
[21] = Cmax in Sprague-Dawley rat at 5 mg/kg, po treated with 10 mg/kg elacridar immediately after compound dosing; format: ADME, organism-based; design: dose 5 mg/kg, route oral; details: in vivo, with elacridar 10 mg/kg
[22] = Oral bioavailability in beagle dog at 5 mg/kg administered as solution; format: ADME, organism-based, Canis lupus familiaris; details: in vivo
[23] = Tmax in beagle dog at 5 mg/kg, po administered via gavage as microsuspension pre-treated with 40 mg famotidine in capsule form 1 hr before compound dosing; format: ADME, organism-based, Canis lupus familiaris; details: in vivo
Gag-Pol polyprotein [24] = target: Gag-Pol polyprotein (Human immunodeficiency virus type 1 group M subtype B (isolate HXB2)(HIV-1), UniProt P04585, V362I)
[25] = Protein binding in mouse serum at 53 nM after 1 hr by ultracentrifugation assay; format: ADME, cell-free; details: read-out: PB (converted)
[26] = Cmax in beagle dog at 5 mg/kg, po administered via gavage as solution; format: ADME, organism-based, Canis lupus familiaris; design: dose 5 mg/kg, route oral; details: in vivo
[27] = test system: Human immunodeficiency virus 1; experiment: microbe, parasite or virus in culture
Description: Antiviral activity against HIV1 expressing gag A364V mutant

[28] = Volume of distribution at steady state in Sprague-Dawley rat at 1 mg/kg, iv; format: ADME, organism-based; details: in vivo, read-out: Vdss
[29] = Half life in dog hepatocytes at 0.5 uM after 1 hr in presence of NADPH by LC-MS/MS analysis; format: ADME, cell-based, Canis lupus familiaris, Hepatocyte
[30] = Bioavailability in Sprague-Dawley rat at 5 mg/kg, id; format: ADME, organism-based; details: in vivo
physchem = details: aqueous
Description: Aqueous solubility of the compound

[31] = AUC (0 to infinity) in Sprague-Dawley rat at 1 mg/kg, iv; format: ADME, organism-based; design: dose 1 mg/kg, time infinity, route intravenous; details: in vivo
[32] = Tmax in Sprague-Dawley rat at 5 mg/kg, po; format: ADME, organism-based; details: in vivo
in vitro [33] = details: human, liver microsomes
Description: Half life in human liver microsomes at 0.5 uM after 1 hr in presence of NADPH by LC-MS/MS analysis

[34] = Tmax in beagle dog at 5 mg/kg, po administered via gavage as solution; format: ADME, organism-based, Canis lupus familiaris; details: in vivo
[35] = Cmax in cynomolgus monkey at 5 mg/kg, po administered via gavage; format: ADME, organism-based, Macaca fascicularis; design: dose 5 mg/kg, route oral; details: in vivo
[36] = AUC (0 to infinity) in beagle dog at 5 mg/kg, po administered via gavage as microsuspension pre-treated with 40 mg famotidine in capsule form 1 hr before compound dosing; format: ADME, organism-based, Canis lupus familiaris; design: dose 5 mg/kg, time infinity, route oral; details: in vivo
in vivo = details: Sprague-Dawley, rat, po, 5 mg/kg
[37] = Oral bioavailability in Sprague-Dawley rat at 5 mg/kg treated with 10 mg/kg elacridar immediately after compound dosing; format: ADME, organism-based; details: in vivo, with elacridar 10 mg/kg
[38] = Half life in dog liver microsomes at 0.5 uM after 1 hr in presence of NADPH by LC-MS/MS analysis; format: ADME, Canis lupus familiaris, microsome
[39] = Half life in cynomolgus monkey liver microsomes at 0.5 uM after 1 hr in presence of NADPH by LC-MS/MS analysis; format: ADME, Macaca fascicularis, microsome
[40] = Half life in rat hepatocytes at 0.5 uM after 1 hr in presence of NADPH by LC-MS/MS analysis; format: ADME, cell-based, Hepatocyte
[41] = Tmax in MDR1 a/b knockout mouse at 5 mg/kg, po administered via gavage; format: ADME, organism-based; details: in vivo
[42] = Tmax in beagle dog at 5 mg/kg, po administered via gavage as microsuspension pre-treated with 6 ug/kg, im pentagastrin 15 to 30 mins before compound dosing; format: ADME, organism-based, Canis lupus familiaris; details: in vivo
Salmonella typhimurium [43] = experiment: Mutagenicity in Salmonella typhimurium TA98 in presence of Aroclor 1254-induced rat liver S9 fraction at up to 1600 ug/plate; format: toxicity, organism-based; details: salmonella enterica subsp. enterica serovar typhimurium
Canis familiaris [44] = experiment: AUC (0 to infinity) in beagle dog at 1 mg/kg, iv; format: ADME, organism-based, Canis lupus familiaris; design: dose 1 mg/kg, route intravenous, time infinity; details: in vivo
[45] = AUC (0 to infinity) in MDR1 a/b knockout mouse at 5 mg/kg, po administered via gavage; format: ADME, organism-based; design: dose 5 mg/kg, time infinity, route oral; details: in vivo
[46] = test system: Gag-Pol polyprotein (Human immunodeficiency virus type 1 group M subtype B (isolate HXB2)(HIV-1)), P04585 [V370A]; details: Human immunodeficiency virus 1
[47] = AUC (0 to infinity) in Sprague-Dawley rat at 5 mg/kg, po treated with 10 mg/kg elacridar immediately after compound dosing; format: ADME, organism-based; design: dose 5 mg/kg, route oral, time infinity; details: in vivo, with elacridar 10 mg/kg
Canis familiaris [48] = experiment: Tmax in beagle dog at 1 mg/kg, iv; format: ADME, organism-based, Canis lupus familiaris; details: in vivo
[49] = Oral bioavailability in CD1 mouse at 5 mg/kg; format: ADME, organism-based; details: in vivo
[50] = Tmax in Sprague-Dawley rat at 5 mg/kg, po treated with 10 mg/kg elacridar immediately after compound dosing; format: ADME, organism-based; details: in vivo, with elacridar 10 mg/kg

C=C(C)[C@@H]1CC[C@]2(NCCN3CCS(=O)(=O)CC3)CC[C@]3(C)[C@H](CC[C@@H]4[C@@]5(C)CC=C(c6ccc(C(=O)O)cc6)C(C)(C)[C@@H]5CC[C@]43C)[C@@H]12 [BMS-955176]
Vd [1]: 0.43 L/kg
fraction unbound at 1 h, 0.053 µM [2]: 0.216
Vd [3]: 0.82 L/kg
bioavailability [4]: 45%
AUC(0-inf) [5]: 1 µM·h
AUC (Canis familiaris [6]): 643 µM·h
AUC(0-inf) [7]: 14.2 µM·h
bioavailability [8]: 4%
Activity (Salmonella typhimurium [9]): Non-Toxic
Cmax [10]: 10200 nM
AUC(0-inf) [11]: 276 µM·h
Kd [12]: 3.2 nM
CC50 (in vitro [13]): 9200 nM
fraction unbound at 1 h, 0.053 µM [14]: 0.141
AUC(0-inf) [15]: 28.9 µM·h
AUC(0-inf) [16]: 21.6 µM·h
Kd (Gag-Pol polyprotein [17]): 33.6 nM
fraction unbound at 1 h, 0.053 µM [18]: 0.154
solubility [19]: 1020 µg/mL (≈ 1480 µM)
fraction unbound at 1 h, 0.053 µM [20]: 0.139
Cmax [21]: 1800 nM
bioavailability [22]: 9%
Tmax [23]: 13.5 h
Kd (Gag-Pol polyprotein [24]): 4.3 nM
fraction unbound at 1 h, 0.053 µM [25]: 0.106
Cmax [26]: 560 nM
EC50 [27]: 1480 nM
Vd [28]: 1.1 L/kg
half-life at 0.5 µM [29]: > 2 h
bioavailability [30]: 36%
solubility (physchem): < 1 µg/mL
AUC(0-inf) [31]: 11.1 µM·h
Tmax [32]: 6 h
half-life at 1 h, 0.5 µM (in vitro [33]): > 2 h
Tmax [34]: 12.7 h
Cmax [35]: 62 nM
AUC(0-inf) [36]: 236 µM·h
AUC(0-t) at 24 h (in vivo): 14.2 µM·h
bioavailability [37]: 63%
half-life at 0.5 µM [38]: > 2 h
half-life at 0.5 µM [39]: 0.183 h
half-life at 0.5 µM [40]: > 2 h
Tmax [41]: 3 h
Tmax [42]: 10.5 h
Activity (Salmonella typhimurium [43]): Non-Toxic
AUC (Canis familiaris [44]): 31.7 µM·h
AUC(0-inf) [45]: 65.5 µM·h
T1/2 [46]: 0.6 h
AUC(0-inf) [47]: 47.4 µM·h
Tmax (Canis familiaris [48]): 187 h
bioavailability [49]: 26.8%
Tmax [50]: 7.3 h
